The residual activity is the signal under treatment as a percentage of the control signal. In general, inhibition refers to the percentage by which the read-out fell short of the control.

The values below come from ChEMBL document CHEMBL5705888, “Substrate specificity and inhibitors of LRRK2, a protein kinase mutated in Parkinson's disease” (Biochem J, 2009).

Test [1] concerns the target Serine/threonine-protein kinase pim-2 (Homo sapiens) (UniProt Q9P1W9). Kind of test: Inhibition of PIM2 (unknown origin) at 10 uM incubated for 30 mins in presence of [gamma-33P]ATP by multidrop micro reagent based assay relative to control; values are per cent of control.
Test [2] deals with Serine/threonine-protein kinase Chk2 (Homo sapiens) (UniProt O96017). Kind of test: Inhibition of CHK2 (unknown origin) at 10 uM incubated for 30 mins in presence of [gamma-33P]ATP by multidrop micro reagent based assay relative to control; values are per cent of control.
Chain of Serine/threonine-protein kinase Chk2 (Homo sapiens) (O96017 whole entry): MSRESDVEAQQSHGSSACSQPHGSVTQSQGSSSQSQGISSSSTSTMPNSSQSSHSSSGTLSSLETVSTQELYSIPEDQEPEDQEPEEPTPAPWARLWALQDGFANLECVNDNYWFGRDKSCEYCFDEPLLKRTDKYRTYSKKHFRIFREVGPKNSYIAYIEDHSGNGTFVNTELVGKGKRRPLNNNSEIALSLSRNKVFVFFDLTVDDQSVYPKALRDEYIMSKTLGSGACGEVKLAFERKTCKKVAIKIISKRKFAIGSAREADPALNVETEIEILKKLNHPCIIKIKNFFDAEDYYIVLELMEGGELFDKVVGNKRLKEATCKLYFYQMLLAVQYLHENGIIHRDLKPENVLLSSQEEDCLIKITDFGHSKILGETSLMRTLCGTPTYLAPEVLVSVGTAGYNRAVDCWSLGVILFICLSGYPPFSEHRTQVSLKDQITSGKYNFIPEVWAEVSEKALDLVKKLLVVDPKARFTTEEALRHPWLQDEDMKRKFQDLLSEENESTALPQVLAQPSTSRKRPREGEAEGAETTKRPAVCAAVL
The target of test [3] is Tyrosine-protein kinase Yes (Homo sapiens) (UniProt P07947). Kind of test: Inhibition of YES1 (unknown origin) at 10 uM incubated for 30 mins in presence of [gamma-33P]ATP by multidrop micro reagent based assay relative to control; values are per cent of control.
Chain of Tyrosine-protein kinase Yes (Homo sapiens) (P07947 2-543 limits assumed): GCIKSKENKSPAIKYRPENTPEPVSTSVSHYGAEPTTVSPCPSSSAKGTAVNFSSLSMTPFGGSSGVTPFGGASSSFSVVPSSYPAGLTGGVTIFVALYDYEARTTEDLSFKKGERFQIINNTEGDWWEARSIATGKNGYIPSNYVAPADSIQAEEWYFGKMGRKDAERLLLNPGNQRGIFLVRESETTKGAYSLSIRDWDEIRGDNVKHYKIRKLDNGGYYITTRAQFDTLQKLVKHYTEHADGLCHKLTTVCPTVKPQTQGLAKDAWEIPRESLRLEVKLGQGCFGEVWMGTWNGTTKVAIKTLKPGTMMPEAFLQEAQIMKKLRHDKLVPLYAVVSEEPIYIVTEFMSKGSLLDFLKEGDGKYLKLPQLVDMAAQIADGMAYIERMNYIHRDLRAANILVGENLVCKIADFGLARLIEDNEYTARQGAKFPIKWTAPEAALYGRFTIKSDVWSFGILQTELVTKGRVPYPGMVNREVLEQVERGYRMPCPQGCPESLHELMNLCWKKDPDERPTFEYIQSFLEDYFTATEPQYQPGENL
The target of test [4] is AMP-activated protein kinase, AMPK (Homo sapiens) (UniProt P54646+O43741+P54619+Q9UGJ0+Q9Y478+Q13131+Q9UGI9). In words: Inhibition of AMPK (unknown origin) at 10 uM incubated for 30 mins in presence of [gamma-33P]ATP by multidrop micro reagent based assay relative to control. Format: protein-complex assay.
Test [5] addresses T1, Eukaryotic elongation factor 2 kinase (Homo sapiens) (UniProt O00418).
T1 sequence (whole entry): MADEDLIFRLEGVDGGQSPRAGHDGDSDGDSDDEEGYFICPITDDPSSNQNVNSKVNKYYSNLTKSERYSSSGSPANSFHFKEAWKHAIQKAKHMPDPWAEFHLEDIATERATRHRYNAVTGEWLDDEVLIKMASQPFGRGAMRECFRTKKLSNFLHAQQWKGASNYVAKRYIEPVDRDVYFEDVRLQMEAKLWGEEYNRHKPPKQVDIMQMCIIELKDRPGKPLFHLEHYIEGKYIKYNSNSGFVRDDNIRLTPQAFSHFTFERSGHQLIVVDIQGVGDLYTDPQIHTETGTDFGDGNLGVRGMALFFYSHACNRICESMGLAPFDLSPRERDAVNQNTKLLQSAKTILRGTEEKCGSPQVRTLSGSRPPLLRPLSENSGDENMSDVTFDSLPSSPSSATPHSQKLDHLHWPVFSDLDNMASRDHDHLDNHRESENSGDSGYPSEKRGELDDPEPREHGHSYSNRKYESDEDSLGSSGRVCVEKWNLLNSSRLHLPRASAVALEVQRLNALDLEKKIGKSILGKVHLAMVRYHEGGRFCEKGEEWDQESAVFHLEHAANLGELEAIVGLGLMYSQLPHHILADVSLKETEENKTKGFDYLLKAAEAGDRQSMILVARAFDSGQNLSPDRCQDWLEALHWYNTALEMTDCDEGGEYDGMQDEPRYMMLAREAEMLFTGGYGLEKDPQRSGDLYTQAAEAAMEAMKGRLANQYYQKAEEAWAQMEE
In words: Inhibition of EF2K (unknown origin) at 10 uM incubated for 30 mins in presence of [gamma-33P]ATP by multidrop micro reagent based assay relative to control; values are per cent of control.

Test [6] deals with Serine/threonine-protein kinase PAK 5 (Homo sapiens) (UniProt Q9P286). In words: Inhibition of PAK5 (unknown origin) at 10 uM incubated for 30 mins in presence of [gamma-33P]ATP by multidrop micro reagent based assay relative to control; values are per cent of control.
Chain of Serine/threonine-protein kinase PAK 5 (Homo sapiens) (Q9P286 whole entry, looked up): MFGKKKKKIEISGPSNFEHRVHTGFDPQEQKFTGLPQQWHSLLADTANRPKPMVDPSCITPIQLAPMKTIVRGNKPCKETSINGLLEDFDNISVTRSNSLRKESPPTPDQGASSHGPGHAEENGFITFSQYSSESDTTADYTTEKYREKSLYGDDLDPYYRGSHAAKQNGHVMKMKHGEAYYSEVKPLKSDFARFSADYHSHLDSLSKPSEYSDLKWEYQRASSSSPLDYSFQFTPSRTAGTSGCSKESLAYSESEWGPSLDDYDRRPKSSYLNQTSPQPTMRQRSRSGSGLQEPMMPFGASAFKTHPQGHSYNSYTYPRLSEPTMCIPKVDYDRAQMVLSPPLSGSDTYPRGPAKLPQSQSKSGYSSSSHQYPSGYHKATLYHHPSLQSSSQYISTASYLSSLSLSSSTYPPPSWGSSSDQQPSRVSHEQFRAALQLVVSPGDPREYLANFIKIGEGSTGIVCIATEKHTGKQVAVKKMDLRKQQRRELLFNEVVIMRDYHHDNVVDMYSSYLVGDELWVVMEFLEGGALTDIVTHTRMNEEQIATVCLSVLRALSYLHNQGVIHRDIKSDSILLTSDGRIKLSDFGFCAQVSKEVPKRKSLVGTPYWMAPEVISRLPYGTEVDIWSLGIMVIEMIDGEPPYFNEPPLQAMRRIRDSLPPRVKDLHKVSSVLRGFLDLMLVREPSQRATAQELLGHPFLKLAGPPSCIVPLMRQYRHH
The target in test [7] is Serine/threonine-protein kinase pim-1 (Homo sapiens) (UniProt P11309). Kind of test: Inhibition of PIM1 (unknown origin) at 10 uM incubated for 30 mins in presence of [gamma-33P]ATP by multidrop micro reagent based assay relative to control; values are per cent of control.
Chain of Serine/threonine-protein kinase pim-1 (Homo sapiens) (P11309 whole entry, looked up): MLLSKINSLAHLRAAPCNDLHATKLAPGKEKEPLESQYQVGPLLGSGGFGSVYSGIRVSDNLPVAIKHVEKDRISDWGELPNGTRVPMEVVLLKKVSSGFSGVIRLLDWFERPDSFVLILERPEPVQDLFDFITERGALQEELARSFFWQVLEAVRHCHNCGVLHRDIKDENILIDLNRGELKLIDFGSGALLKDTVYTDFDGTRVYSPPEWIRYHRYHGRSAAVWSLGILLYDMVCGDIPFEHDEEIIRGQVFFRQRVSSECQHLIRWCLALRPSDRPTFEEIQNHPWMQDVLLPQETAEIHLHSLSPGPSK
The target of test [8] is T2, Dual specificity tyrosine-phosphorylation-regulated kinase 3 (Homo sapiens) (UniProt O43781).
T2 sequence (whole entry): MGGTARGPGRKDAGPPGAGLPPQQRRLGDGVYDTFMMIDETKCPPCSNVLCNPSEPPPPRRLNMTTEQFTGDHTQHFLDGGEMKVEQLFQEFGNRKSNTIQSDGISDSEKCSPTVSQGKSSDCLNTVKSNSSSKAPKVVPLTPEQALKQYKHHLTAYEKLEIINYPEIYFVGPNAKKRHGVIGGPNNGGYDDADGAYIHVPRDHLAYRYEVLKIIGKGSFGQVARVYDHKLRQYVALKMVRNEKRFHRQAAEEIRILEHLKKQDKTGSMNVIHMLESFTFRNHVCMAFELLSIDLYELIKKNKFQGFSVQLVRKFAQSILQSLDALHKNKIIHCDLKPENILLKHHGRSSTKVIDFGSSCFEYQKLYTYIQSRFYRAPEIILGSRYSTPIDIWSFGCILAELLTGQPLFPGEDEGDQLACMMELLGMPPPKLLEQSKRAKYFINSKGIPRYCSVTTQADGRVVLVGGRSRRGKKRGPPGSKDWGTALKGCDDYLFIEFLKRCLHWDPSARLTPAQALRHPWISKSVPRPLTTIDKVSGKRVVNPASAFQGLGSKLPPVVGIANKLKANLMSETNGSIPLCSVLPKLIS
Kind of test: Inhibition of DYRK3 (unknown origin) at 1 uM incubated for 30 mins in presence of [gamma-33P]ATP by multidrop micro reagent based assay relative to control; values are per cent of control.

Chain of Serine/threonine-protein kinase pim-2 (Homo sapiens) (Q9P1W9 whole entry, looked up): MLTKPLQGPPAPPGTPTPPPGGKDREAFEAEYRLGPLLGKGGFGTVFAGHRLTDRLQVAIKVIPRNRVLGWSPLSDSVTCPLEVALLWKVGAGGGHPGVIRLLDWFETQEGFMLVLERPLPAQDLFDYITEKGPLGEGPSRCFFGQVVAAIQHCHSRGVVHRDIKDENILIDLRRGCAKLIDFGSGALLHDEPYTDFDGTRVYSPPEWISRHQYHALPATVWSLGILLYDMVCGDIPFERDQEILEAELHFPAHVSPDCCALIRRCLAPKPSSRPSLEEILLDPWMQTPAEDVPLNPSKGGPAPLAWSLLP

Turning to `C[C@@H](N)[C@H]1CC[C@H](C(=O)Nc2ccncc2)CC1`, the residual activity in test [1] was determined as 102%; in test [2] it was 93%; in test [3], 96%; in test [5], 81%; in test [6], 101%; in test [7] it was 94%. Also, the inhibition in test [4] stood at 77%.
In the case of `CCn1c(-c2nonc2N)nc2cnc(Oc3cccc(NC(=O)c4ccc(OCCN5CCOCC5)cc4)c3)cc21` [GSK-269962A], the residual activity in test [8] worked out at 77%.
For the compound `CC1=C(C(=O)Nc2cc3cn[nH]c3cc2F)C(c2ccc(C(F)(F)F)cc2)CC(=O)N1` (stereo unspecified), the residual activity in test [8] stood at 94%.
As to `O=S(=O)(c1cccc2cnccc12)N1CCCNCC1` [FASUDIL], the residual activity in test [1] worked out at 111%; in test [2] it was 34%; in test [3] it was 136%; in test [5] it was 120%; in test [6] it was 112%; in test [7] it was 84%. Besides, the inhibition in test [4] worked out at 60%.
